Laboratory results: patent US20100016434A1, “Inhibitors of Egln3 Activity for the Treatment of Neurodegenerative Disorders” (priority 2005, published 2010)

Legend:
PC12 cells [1] = test: Apoptosis after NGF withdrawal in differentiated PC12 cells (GFP-Histone nuclei scoring); format: cell-based, rat
Procedure: FIG. 5: (A) Anti-SM20/EGLN3 immunoblot analysis of PC12 cells treated as in FIG. 3A. SM-20 in vitro translate included in lane 1 as a control. (B and D) Representative fluorescent photomicrographs (B) and anti-HA immunoblot analysis (D) of PC12 cells transfected to produce GFP-Histone and the indicated HA-EGLN species. White arrows in […] indicate apoptotic nuclei. (C) Percent of GFP-positive nuclei with apoptotic changes after transfection with 0.5 or 1.0 μg of the indicated plasmids. (E and F) Representative fluorescent photomicrographs of PC12 cells transfected with the indicated siRNAs and a plasmid encoding GFP-Histone followed by treatment with NGF for […] (‘+NGF’), which was then withdrawn for 24 hours (‘−NGF’). White arrows indicate apoptotic nuclei, which were quantitated in (E) as percent of GFP-positive nuclei. (G and H) Representative fluorescent photomicrographs (F) of PC12 cells transfected to produce GFP-Histone and treated with NGF for 5 days (‘+NGF’), which was then withdrawn for 24 hours (‘−NGF’). Where indicated cells were exposed to 100 μM CoCl2 or 1% hypoxia during NGF withdrawal. White arrows indicate apoptotic nuclei, which were quantitated in (G) as % of GFP-positive nuclei.
(§1) (B) FACS profiles of PC12 cells stained with the ROS-sensitive dye CM-H2DCFDA after treatment with the indicated SDH inhibitors or the ROS-inducing agent Rotenone (Ro; 20 μM) in the presence or absence of the ROS scavenger ascorbic acid (AA; 100 μM). C=control. (C and D) Representive fluorescent photomicrographs of PC12 cells (C) transfected to produce GFP-Histone alone (GFP-His) or GFP-Histone and EGLN3 (EGLN3). The SDH inhibitors 3-NPA (300 t-IM), MA (300 I-LM), or TTFA (200 ˜M) were added where indicated. White arrows indicate apoptotic nuclei, which were quantitated in (D) as percent of GFP-positive nuclei. (E) Immunoblot analysis of PC12 cells treated with the indicated chemicals or vehicle (C). (F) Percent of GFP-positive PC12 nuclei undergoing apoptosis after transfection to produce GFP-Histone alone (GFP-His) or GFP-Histone and EGLN3 (EGLN3) in the presence or absence of SDH inhibitors. 100 μM AA was also present where indicated. (G) Percent of GFP-positive PC 12 nuclei undergoing apoptosis after transfection with the indicated siRNAs and a plasmid encoding GFP-Histone followed by treatment with NGF for 5 days (‘+NGF’), which was then withdrawn for 24 hours (‘−NGF’). […]
(§2) Undifferentiated PC12 cells were plated onto collagen-coated 6-well plates 1 day before transfection with LIPOFECTAMINE 2000 reagent (Invitrogen) according to the manufacturer's instructions. […] Nuclei that were condensed or fragmented were scored as apoptotic. Approximately 400 cells were scored for each set of conditions and all assays were performed in triplicate.

EGLN3 = target: T1, EGLN3 (Homo sapiens, UniProt Q9H6Z9); test: EGLN3 hydroxylation assay: HIF1α-derived peptide, capture of 35S-labeled pVHL; format: biochemical; conditions: increasing amount of succinate; EGLN3 in vitro translate
T1 construct: HA; made in house; host or cells: in vitro translation in reticulocyte lysate
T1 sequence (Q9H6Z9 whole entry): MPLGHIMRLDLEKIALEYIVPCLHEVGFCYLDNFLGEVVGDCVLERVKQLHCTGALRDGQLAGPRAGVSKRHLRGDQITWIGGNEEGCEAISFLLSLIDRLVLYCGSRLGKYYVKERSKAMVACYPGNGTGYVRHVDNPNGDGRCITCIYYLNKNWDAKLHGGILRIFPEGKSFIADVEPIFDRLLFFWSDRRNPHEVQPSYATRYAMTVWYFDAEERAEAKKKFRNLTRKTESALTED

JunB = test: Immunoblot analysis of JunB in 786-O renal carcinoma subclones; format: cell-based, human; conditions: 786-O cells treated with PKC inhibitor
Procedure: FIG. 2: (A) Immunoblot analysis of 786-O VHL(−/−) renal carcinoma cells retrovirally infected to produce the indicated short hairpin RNAs (shRNA) or wild-type pVHL (VHL). (B) Immunoblot analyis of RC3 cells and WT7 cells; where indicated, WT7 cells were treated with DFO or infected to produce HIF2α P405A; P531A or with empty retrovirus. (C) Immunoblot analysis of indicated 786-O subclones grown in presence or absence of DFO; (*)=non-specific band. (D) Immunoblot analysis of A498 and 786-O cells transfected to produce the indicated HA-pVHL variants or with empty vector. Arrow indicates a slowly migrating form of aPKC. (E) In vitro aPKC activity. Anti-aPKC immunoprecipitates of the indicated cell lines under antibody excess conditions were incubated with a peptidic aPKC substrate in the presence of ^32P-γ-ATP. Shown are incorporated ^32P values. (F) Immunoblot analysis of 786-O cells treated with the PKC inhibitor GF109230X.
Twenty μg of nuclear extract per lane, prepared using a NE-PER extraction kit (Pierce Biotechnology, Inc., Rockford Ill.) and measured by the Bradford assay, was resolved on 10% or 12% SDS-PAGE gels and transferred to nitrocellulose membrane (Bio-Rad Laboratories, Hercules Calif.) to detect endogenous JunB and HIF2α. […] Bound protein was detected with a Horseradish Peroxidase (HRP)-conjugated secondary antibodies and an enhanced chemiluminesence kit (Pierce).

HIF2α = test: Immunoblot analysis of HIF2α in 786-O cells; format: cell-based, human; conditions: 786-O cells treated with PKC inhibitor
From the text: (A and B) Immunoblot analysis of 786-O cells treated with the PKC inhibitor GF109230X.
Twenty μg of nuclear extract per lane, prepared using a NE-PER extraction kit (Pierce Biotechnology, Inc., Rockford Ill.) and measured by the Bradford assay, was resolved on 10% or 12% SDS-PAGE gels and transferred to nitrocellulose membrane (Bio-Rad Laboratories, Hercules Calif.) to detect endogenous JunB and HIF2α. After blocking in TBS with 5% nonfat milk, the membranes were probed with anti-JunB monoclonal antibody (C-11; Santa Cruz Biotechnology, Inc., Santa Cruz Calif.) or anti-HIF2α rabbit polyclonal antibody (NB100-122; Novus Biologicals, Inc., Littleton Colo.). Bound protein was detected with a Horseradish Peroxidase (HRP)-conjugated secondary antibodies and an enhanced chemiluminesence kit (Pierce).

PC12 cells [2] = test: EGLN3-induced apoptosis in transfected undifferentiated PC12 cells (GFP-Histone nuclei scoring); format: cell-based, rat; conditions: coadministration of 100 μM AA with SDH inhibitors
Procedure: as §1, with “indicated.” for “indicated. (G) Percent of GFP-positive PC 12 nuclei undergoing apoptosis after transfection with the indicated siRNAs and a plasmid encoding GFP-Histone followed by treatment with NGF for 5 days (‘+NGF’), which was then withdrawn for 24 hours (‘−NGF’).”
as §2, with “triplicate. […]” for “triplicate.”

PC12 cells [3] = test: ROS analysis by FACS with CM-H2DCFDA; format: cell-based, rat; conditions: 100 μM AA
Procedure: (B) FACS profiles of PC12 cells stained with the ROS-sensitive dye CM-H2DCFDA after treatment with the indicated SDH inhibitors or the ROS-inducing agent Rotenone (Ro; 20 μM) in the presence or absence of the ROS scavenger ascorbic acid (AA; 100 μM). C=control. (C and D) Representive fluorescent photomicrographs of PC12 cells (C) transfected to produce GFP-Histone alone (GFP-His) or GFP-Histone and EGLN3 (EGLN3). The SDH inhibitors 3-NPA (300 t-IM), MA (300 I-LM), or TTFA (200 ˜M) were added where indicated. White arrows indicate apoptotic nuclei, which were quantitated in (D) as percent of GFP-positive nuclei. (E) Immunoblot analysis of PC12 cells treated with the indicated chemicals or vehicle (C). (F) Percent of GFP-positive PC12 nuclei undergoing apoptosis after transfection to produce GFP-Histone alone (GFP-His) or GFP-Histone and EGLN3 (EGLN3) in the presence or absence of SDH inhibitors. 100 μM AA was also present where indicated. (G) Percent of GFP-positive PC 12 nuclei undergoing apoptosis after transfection with the indicated siRNAs and a plasmid encoding GFP-Histone followed by treatment with NGF for 5 days (‘+NGF’), which was then withdrawn for 24 hours (‘−NGF’).
PC12 cells were incubated for 1 hr with 5 μM CM-H2DCFDA (Molecular Probes), harvested, resuspended at 10^6 cells/ml in PBS supplemented with 7% FBS, and analyzed by FACS.

[4] = SDH inhibitors 300 μM, NGF withdrawn for 24 hours

For O=C(O)CCC(=O)C(=O)O [2-OG, 2-oxoglutarate], the “Apoptosis after NGF withdrawal in SDH D siRNA-transfected cells” value (PC12 cells [1]; 0.5 mM 2-oxoglutarate added to the media 24 hours before NGF withdrawal) was “partially restored”.
O=C(O)CCC(=O)O [succinate] was tested, and the EGLN3 hydroxylase activity (EGLN3) was “diminished”.
In the case of CN(C)CCCn1cc(C2=C(c3c[nH]c4ccccc34)C(=O)NC2=O)c2ccccc21 [GF109203X], the JunB levels (JunB) is reported as “downregulated” and the HIF2α levels (HIF2α) is reported as “does not affect”.
In the case of [Cl][Co][Cl] [cobalt chloride], the “Apoptosis after NGF withdrawal” value (PC12 cells [1]; 100 μM CoCl2 during NGF withdrawal, 24 hours) is reported as “decreased”.
O=C1O[C@H]([C@@H](O)CO)C(O)=C1O [ascorbic acid] was tested, and the “Effect on the action of the SDH inhibitors on EGLN3-induced apoptosis” value (PC12 cells [2]) was “failed to mitigate” and the “ROS induction by SDH inhibitors” value (PC12 cells [3]) was “blocking ROS induction”.
With O=C(O)CC(=O)O [MA, malonic acid] the “Apoptosis after NGF withdrawal” value (PC12 cells [1]; [4]) was “diminished apoptosis”.
For O=C(O)CC[N+](=O)[O-] [3-NPA, 3-nitroproprionic acid], the “Apoptosis after NGF withdrawal” value (PC12 cells [1]; [4]) was “diminished apoptosis”.
